Patent US4064228A (priority 1975, dated 1977)
Read-outs that look alike come from different tables or passages of the source.

Experiments:
[1] = tested on: antibody IgG raised to azomorphine conjugate (morphine-specific); type: binding
Experimental: The dried sorbent (300 mg) was washed with 50 ml. saline (0.9%) five times and suspended in a final volume of 15 ml, to which 5 ml of crude antiserum raised to the azomorphine conjugate of Example 5, supra was added. […] The matrix recovered by centrifugation was used as a slurry. 10 ml, […] HCL was added to sorbent. After centrifugation for 1 minute the filtered supernatant was neutralized at once with 1 M dibasic sodium phosphate. The acid base cycle was repeated three times. The recovered antibody solution was dialyzed against 12 liters of 0.1 M phosphate buffer, pH 7.4. […] The specificities of recovered antibody IgG were next determined by immune fluorescence techniques.
Quenching of antibody fluorescence was performed using antibody IgG from non pooled samples. […] Native alkaloid was added in increasing amounts to each tube containing azomorphine and IgG in a 10:1 hapten: antibody ratio (× 10^-10 moles/ml). The alkaloid was added to IgG simultaneously with or in advance of azomorphine. All dilutions were done in triplicate. Incubations including controls were carried out for 10 minutes to 12 hours at 23° C.

[2] = tested on: antibody raised to azomorphine conjugate (crude antisera); type: binding; settings: morphine taken as 100%; for % Cross-reactivity: M50/A50 (amounts for 50% inhibition of labeled hapten binding), Abraham method; for Cross-reactivity of morphine-specific antibody (general statement): under the conditions just described / similarly measured
Experimental: After 2 hours, an equal volume of a neutral, saturated ammonium sulfate solution was added. The resulting precipitates, sedimented by centrifugation at 3000 rpm for 15 minutes at 4° C, were washed once in 50% saturated ammonium sulphate solution. Each precipitate was dissolved in 0.2 ml NCS solubilizer (Amersham-Searle Corp.) and transferred to a scintillation counting vial containing 10 ml. Aquasol dispersant (New England Nuclear Corp.) and counted in a Nuclear Chicago Liquid Scintillation Spectrometer.
Cross-reactivity was computed by the method of Abraham, J. Clin. Endocrin. & Metab.

[3] = tested on: antibody to 3-carboxymethyl opium alkaloid-protein antigen (Leute); settings: Leute et al., J.A.M.A. 1972; Nature (New Biology) 1972; cited from earlier work
[4] = tested on: opium alkaloid antibody (prior art, raised with morphine); settings: summary of all prior art known to applicant; cited from earlier work
[5] = tested on: antibody to 3-carboxymethyl opium alkaloid-protein antigen (Spector); settings: Spector U.S. Pat. Nos. 3,709,868 and 3,822,245; cited from earlier work
antibodies to serotonin = settings: reported by Spector et al., Science 179:1340 (1973); cited from earlier work
[6] = even in vast hapten excess, azomorphine:IgG 10:1

SMILES	% Cross-reactivity [2]	Inhibition of fluorescence quenching [1, 6]	Cross-reactivity of morphine-specific antibody (general statement) [2]	other results
CN1CC[C@]23c4c5ccc(O)c4O[C@H]2[C@@H](O)C=C[C@H]3[C@H]1C5 [Morphine, morphine]	100%			Inhibition of fluorescence quenching ([1]; morphine 40 × 10^-10 moles/ml, 1 × 10^-10 moles/ml antibody, 10 × 10^-10 moles/ml azomorphine): completely inhibited
COc1ccc2c3c1O[C@H]1[C@@H](O)C=C[C@H]4[C@@H](C2)N(C)CC[C@@]341 [Codeine, codeine]	11%	slight	≤ 20%	Cross-reactivity with codeine [3]: high cross-reactivity; Cross-reactivity with codeine [4]: extremely high cross-reactivity; Cross-reactivity with codeine [5]: very high cross-reactivity
CC(=O)O[C@H]1C=C[C@H]2[C@H]3Cc4ccc(O)c5c4[C@@]2(CCN3C)[C@H]1O5 [Monoacetylmorphine]	7%	slight	not more than 10%	
CCC(=O)C(CC(C)N(C)C)(c1ccccc1)c1ccccc1 (stereo not shown) [Methadone]	0.01%		≤ 0.1%	
C=CCN1CC[C@]23c4c5ccc(O)c4O[C@H]2[C@@H](O)C=C[C@H]3[C@H]1C5 [N-allylnormorphine]	2%			
CN1CC[C@]23c4c5cc(N=Nc6ccc(C(=O)O)cc6)c(O)c4O[C@H]2[C@@H](O)C=C[C@H]3[C@H]1C5 [Example 1, 2-(4'-carboxyphenylazo) morphine]			about 100%	Association constants determined by the Sips equation applied to fluorescence data ([1]; antibody IgG from non pooled samples): 1e+07 to 3e+08 L/mol; Quenching maxima (antibody fluorescence) ([1]; antibody IgG from non pooled samples, azomorphine as quencher, 23° C): 56-77%
CC(=O)Oc1ccc2c3c1O[C@H]1[C@@H](OC(C)=O)C=C[C@H]4[C@@H](C2)N(C)CC[C@@]341 [heroin, Diacetylmorphine]	7%	slight	not more than 10%	
COc1ccc2[nH]cc(CCN)c2c1 [methoxyserotonin, 5-methoxytryptamine]				Cross-reactivity with serotonin antibodies (antibodies to serotonin): substantially complete cross-reactivity
CCOc1ccc2c3c1O[C@H]1[C@@H](O)C=C[C@H]4[C@@H](C2)N(C)CC[C@@]341 [Ethylmorphine]	16%			
COc1ccc2c(c1)[C@@]13CCCC[C@H]1[C@@H](C2)N(C)CC3 [Dextromethorphan, 3-methoxy N-methyl morphinan]	0.01%	slight	≤ 0.1%	
